Measured values: patent US8461151B2, “Aryl-/heteroaryl-cyclohexenyl-tetraazabenzo[e]azulenes” (Hoffmann-La Roche Inc., priority 2010, dated 2013)

What follows are compounds tested against T1, human V1a receptor (Homo sapiens, UniProt P37288) (assay: human V1a receptor binding studies (3H-Vasopressin SPA, membranes of transfected HEK293 cells)). Details: 3H-Vasopressin displacement, HEK293 cell membranes, SPA beads, 1 h at room temperature, Ki by Cheng-Prussoff from IC50, read-out: pKi (hV1a) (converted).
T1 construct: expressed in transfected cells; host or cells: HEK293 cells, transiently transfected; membranes
T1 sequence (P37288 whole entry): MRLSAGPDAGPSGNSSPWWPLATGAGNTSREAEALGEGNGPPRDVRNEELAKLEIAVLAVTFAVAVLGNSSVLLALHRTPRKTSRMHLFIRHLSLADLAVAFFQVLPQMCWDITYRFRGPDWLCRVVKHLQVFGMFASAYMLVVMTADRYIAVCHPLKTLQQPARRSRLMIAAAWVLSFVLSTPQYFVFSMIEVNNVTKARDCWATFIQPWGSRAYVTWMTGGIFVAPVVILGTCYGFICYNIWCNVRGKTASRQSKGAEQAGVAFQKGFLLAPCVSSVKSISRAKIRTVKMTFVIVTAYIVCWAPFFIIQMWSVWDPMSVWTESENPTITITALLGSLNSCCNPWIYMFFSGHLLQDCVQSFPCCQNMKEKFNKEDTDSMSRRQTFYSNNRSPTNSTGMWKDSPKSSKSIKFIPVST
Protocol: The human V1a receptor was cloned by RT-PCR from total human liver RNA. The coding sequence was subcloned in an expression vector after sequencing to confirm the identity of the amplified sequence. […] Cell membranes were prepared from HEK293-cells transiently transfected with the expression vector and grown in 20 liter fermenters with the following protocol.
50 g of cells are resuspended in 30 ml freshly prepared ice cold Lysis buffer (50 mM HEPES, 1 mM EDTA, 10 mM magnesium dichloride adjusted to pH=7.4+ complete cocktail of protease inhibitor (Roche Diagnostics)). Homogenized with Polytron for 1 min and sonicated on ice for 2×2 minutes at 80% intensity (Vibracell sonicator). The preparation is centrifuged 20 min at 500 g at 4° C., the pellet is discarded and the supernatant centrifuged 1 hour at 43,000 g at 4° C. (19,000 rpm). The pellet is resuspended in 12.5 ml Lysis buffer+12.5 ml sucrose 20% and homogenized using a Polytron for 1-2 min. The protein concentration is determined by the Bradford method and aliquots are stored at −80° C. until use. For binding studies 60 mg Yttrium silicate SPA beads (Amersham®) are mixed with an aliquot of membrane in binding buffer (50 mM Tris, 120 mM sodium chloride, 5 mM potassium chloride, 2 mM calcium dichloride, 10 mM magnesium dichloride) for 15 minutes with mixing. 50 μl of bead/membrane mixture is then added to each well of a 96 well plate, followed by 50 μl of 4 nM 3H-Vasopressin (American Radiolabeled Chemicals). For total binding measurement 100 μl of binding buffer are added to the respective wells, for non-specific binding 100 μl of 8.4 mM cold vasopressin and for compound testing 100 μl of a serial dilution of each compound in 2% dimethyl sulfoxide. The plate is incubated 1 h at room temperature, centrifuged 1 min at 1000 g and counted on a Packard Top-Count. Non-specific binding counts are subtracted from each well and data is normalized to the maximum specific binding set at 100%. To calculate an IC50 the curve is fitted using a non-linear regression model (XLfit) and the Ki is calculated using the Cheng-Prussoff equation.

Row | SMILES | Ki [nM]
1 | Cc1nc(C2=CCC(c3nnc4n3-c3ccc(Cl)cc3CNC4)CC2)cs1 (racemic) [Example 35, (RS)-8-Chloro-1-[4-(2-methyl-thiazol-4-yl)-cyclohex-3-enyl]-5,6-dihydro-4H-2,3,5,10b-tetraaza-benzo[e]azulene] | 170
2 | Cc1nc(C2=CCC(c3nnc4n3-c3ccc(Cl)cc3CN(C)C4)CC2)cs1 (racemic) [Example 36, (RS)-8-Chloro-5-methyl-1-[4-(2-methyl-thiazol-4-yl)-cyclohex-3-enyl]-5,6-dihydro-4H-2,3,5,10b-tetraaza-benzo[e]azulene] | 13.5
3 | CN1Cc2cc(Cl)ccc2-n2c(nnc2C2CC=C(c3ccccn3)CC2)C1 (single isomer, unassigned; (+)) [Example 24, (+)-8-Chloro-5-methyl-1-(-4-pyridin-2-yl-cyclohex-3-enyl)-5,6-dihydro-4H-2,3,5,10b-tetraaza-benzo[e]azulene] | 2.88
4 | CC(C)(C)OC(=O)N1Cc2cc(Cl)ccc2-n2c(nnc2C2CC=C(c3ncccc3F)CC2)C1 (single isomer, unassigned; (+)) [Example 29, (+)-8-Chloro-1-[-4-(3-fluoro-pyridin-2-yl)-cyclohex-3-enyl]-4H,6H-2,3,5,10b-tetraaza-benzo[e]azulene-5-carboxylic acid tert-butyl ester] | 0.794
5 | Fc1cccnc1C1=CCC(c2nnc3n2-c2ccc(Cl)cc2CNC3)CC1 (single isomer, unassigned; (+)) [Example 32, (+)-8-Chloro-1-[-4-(3-fluoro-pyridin-2-yl)-cyclohex-3-enyl]-5,6-dihydro-4H-2,3,5,10b-tetraaza-benzo[e]azulene] | 38.9
6 | CN1Cc2cc(Cl)ccc2-n2c(nnc2C2CC=C(c3ncccc3F)CC2)C1 (single isomer, unassigned; (+)) [Example 33, (+)-8-Chloro-1-[-4-(3-fluoro-pyridin-2-yl)-cyclohex-3-enyl]-5-methyl-5,6-dihydro-4H-2,3,5,10b-tetraaza-benzo[e]azulene] | 5.13
7 | CN1Cc2cc(Cl)ccc2-n2c(nnc2C2CC=C(c3ccccn3)CC2)C1 (single isomer, unassigned; (-)) [Example 23, (−)-8-Chloro-5-methyl-1-(-4-pyridin-2-yl-cyclohex-3-enyl)-5,6-dihydro-4H-2,3,5,10b-tetraaza-benzo[e]azulene] | 7.59
8 | CC(C)(C)OC(=O)N1Cc2cc(Cl)ccc2-n2c(nnc2C2CC=C(c3ncccc3F)CC2)C1 (single isomer, unassigned; (-)) [Example 28, (−)-8-Chloro-1-[-4-(3-fluoro-pyridin-2-yl)-cyclohex-3-enyl]-4H,6H-2,3,5,10b-tetraaza-benzo[e]azulene-5-carboxylic acid tert-butyl ester] | 1.91
9 | Fc1cccnc1C1=CCC(c2nnc3n2-c2ccc(Cl)cc2CNC3)CC1 (single isomer, unassigned; (-)) [Example 30, (−)-8-Chloro-1-[-4-(3-fluoro-pyridin-2-yl)-cyclohex-3-enyl]-5,6-dihydro-4H-2,3,5,10b-tetraaza-benzo[e]azulene] | 42.7
10 | CN1Cc2cc(Cl)ccc2-n2c(nnc2C2CC=C(c3ncccc3F)CC2)C1 (single isomer, unassigned; (-)) [Example 31, (−)-8-Chloro-1-[-4-(3-fluoro-pyridin-2-yl)-cyclohex-3-enyl]-5-methyl-5,6-dihydro-4H-2,3,5,10b-tetraaza-benzo[e]azulene] | 8.13
